According to PubChem BioAssay (NCI):
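1) Cells in 96-well plates. 2) Compound, 48 h, 5 concentrations. 3) Linear interpolation between surrounding doses. 4) Unreached endpoint = highest concentration. GI50: concentration for 50% inhibition of growth. TGI: concentration producing complete growth inhibition.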

What was measured:
Experiment in all cases: NCI-60 cell line screen, 48 h
[1] = test system: MALME-3M melanoma
[2] = test system: BT-549 breast
[3] = test system: U251 CNS
[4] = test system: OVCAR-3 ovarian
[5] = test system: COLO 205 colon
[6] = test system: TK-10 renal
[7] = test system: MDA-MB-435
[8] = test system: MCF7 breast
[9] = test system: SK-MEL-28 melanoma
[10] = test system: OVCAR-4 ovarian
[11] = test system: UO-31 renal
[12] = test system: SNB-75 CNS
[13] = test system: RXF 393 renal
[14] = test system: SK-OV-3 ovarian
[15] = test system: CAKI-1 renal
[16] = test system: NCI-H23 lung
[17] = test system: SK-MEL-2 melanoma
[18] = test system: T-47D breast
[19] = test system: HOP-92 NSCLC
[20] = test system: HT29 colon
[21] = test system: SW-620 colon
[22] = test system: SF-268 CNS
[23] = test system: 786-0 renal
[24] = test system: MDA-MB-231 breast
[25] = test system: SF-295 CNS
[26] = test system: OVCAR-5 ovarian
[27] = test system: NCI-H226 lung
[28] = test system: PC-3 prostate
[29] = test system: HOP-62 NSCLC
[30] = test system: HCT-15 colon
[31] = test system: HCC-2998 colon
[32] = test system: NCI/ADR-RES ovarian
[33] = test system: NCI-H460 lung
[34] = test system: HCT-116 colon
[35] = test system: RPMI-8226 leukemia
[36] = test system: IGROV1 ovarian
[37] = test system: HS 578T breast
[38] = test system: SR leukemia
[39] = test system: SK-MEL-5 melanoma
[40] = test system: K-562 leukemia
[41] = test system: ACHN renal
[42] = test system: OVCAR-8 ovarian
[43] = test system: SN12C renal
[44] = test system: KM12 colon
[45] = test system: SNB-19 CNS
[46] = test system: NCI-H522 lung
[47] = test system: A549 NSCLC
[48] = test system: UACC-257 melanoma
[49] = test system: LOX IMVI melanoma
[50] = test system: MOLT-4 leukemia
[51] = test system: A498 renal
[52] = test system: M14 melanoma
[53] = test system: DU-145 prostate
[54] = test system: UACC-62 melanoma
[55] = test system: SF-539 CNS
[56] = test system: CCRF-CEM leukemia
[57] = test system: HL-60(TB) leukemia
[58] = test system: EKVX NSCLC

`C[C@@H]1CC[C@H]2C(CN(C)CC3=C(C(F)(F)F)O[C@@H]4O[C@@]5(C)CC[C@H]6[C@H](C)CC[C@@H]3[C@@]46OO5)=C(C(F)(F)F)O[C@@H]3O[C@@]4(C)CC[C@@H]1[C@]32OO4` was tested, and the GI50 [1] was 1.06 µM, the TGI [1] was > 83.9 µM and the GI50 [2] was 14.3 µM. It also gave a TGI [2] of 54.4 µM, a GI50 [3] of 0.405 µM and a TGI [3] of 22.6 µM. It also gave a GI50 [4] of 0.419 µM, a TGI [4] of 12.1 µM and a GI50 [5] of 0.728 µM. The TGI [5] was > 100 µM, the GI50 [6] was 4.93 µM and the TGI [6] was > 54.2 µM. For the same molecule, the GI50 [7] was 0.549 µM, the TGI [7] was 40.2 µM and the GI50 [8] was 1.56 µM. The TGI [8] was > 100 µM, the GI50 [9] was > 32.8 µM and the TGI [9] was > 100 µM. For the same molecule, the GI50 [10] was 1.12 µM, the TGI [10] was 56.6 µM and the GI50 [11] was 2.86 µM. For the same molecule, the TGI [12] was > 23.9 µM, the GI50 [13] was 2.83 µM and the TGI [13] was > 100 µM. The GI50 [14] was > 100 µM, the TGI [14] was > 100 µM and the GI50 [15] was 3.19 µM. The TGI [15] was 18.2 µM, the GI50 [16] was 0.818 µM and the TGI [16] was 27 µM. The GI50 [17] was > 37.1 µM, the TGI [17] was > 80.7 µM and the GI50 [18] was 0.236 µM. For the same molecule, the TGI [18] was 39.7 µM, the GI50 [19] was 11.4 µM and the TGI [19] was > 94.4 µM. For the same molecule, the GI50 [20] was 2.76 µM, the TGI [20] was > 100 µM and the GI50 [21] was 0.65 µM. For the same molecule, the TGI [21] was 53.3 µM, the GI50 [22] was 2.82 µM and the TGI [22] was > 95.7 µM. For the same molecule, the GI50 [23] was 4.03 µM, the TGI [23] was 41.7 µM and the GI50 [24] was 5.9 µM. For the same molecule, the TGI [24] was > 93.1 µM, the TGI [25] was > 51.5 µM and the GI50 [26] was 0.935 µM. For the same molecule, the TGI [26] was > 100 µM, the GI50 [27] was 3.71 µM and the TGI [27] was > 64.9 µM. For the same molecule, the GI50 [28] was 0.231 µM, the TGI [28] was > 100 µM and the GI50 [29] was 34.4 µM. For the same molecule, the TGI [29] was > 100 µM, the GI50 [30] was 0.506 µM and the TGI [30] was > 100 µM. For the same molecule, the GI50 [31] was 18.9 µM, the TGI [31] was > 59.5 µM and the GI50 [32] was 16.8 µM. For the same molecule, the TGI [32] was > 59.2 µM, the GI50 [33] was 1.32 µM and the TGI [33] was > 56.9 µM. It also gave a GI50 [34] of 0.415 µM, a TGI [34] of 32.9 µM and a GI50 [35] of 0.82 µM. For the same molecule, the TGI [35] was > 49.6 µM, the GI50 [36] was 2.3 µM and the TGI [36] was > 23.9 µM. For the same molecule, the GI50 [37] was 2.25 µM, the GI50 [38] was 81.9 µM and the TGI [38] was > 100 µM. For the same molecule, the GI50 [39] was 1.86 µM, the TGI [39] was 18.9 µM and the TGI [40] was > 42.6 µM. It also gave a GI50 [41] of 1.81 µM, a TGI [41] of 14.9 µM and a GI50 [42] of 1.58 µM. The TGI [42] was > 53.6 µM, the GI50 [43] was 7.47 µM and the TGI [43] was > 100 µM. The GI50 [44] was 0.381 µM, the TGI [44] was 20.1 µM and the GI50 [45] was 23.6 µM. The TGI [45] was > 100 µM, the GI50 [46] was 2.67 µM and the GI50 [47] was 1.58 µM. For the same molecule, the TGI [47] was > 45.4 µM, the GI50 [48] was 1.9 µM and the TGI [48] was > 51.1 µM. The GI50 [49] was 0.715 µM, the TGI [49] was 1.98 µM and the GI50 [50] was > 25.4 µM. The TGI [50] was > 100 µM, the GI50 [51] was 3.92 µM and the TGI [51] was > 100 µM. The GI50 [52] was 2.69 µM, the TGI [52] was > 100 µM and the GI50 [53] was 2.69 µM. The TGI [53] was 16.8 µM, the GI50 [54] was 12.4 µM and the TGI [54] was > 100 µM. For the same molecule, the GI50 [55] was 0.488 µM, the TGI [55] was > 100 µM and the GI50 [56] was 1.31 µM. For the same molecule, the TGI [56] was > 42.9 µM.

In the case of `COC(=O)CCCCCCCCC(=O)c1c(C)[nH]c(/C=C2\N=C(c3ccc[nH]3)C=C2OC)c1C`, the GI50 [1] is reported as > 22.9 µM, the TGI [1] is reported as > 100 µM and the GI50 [2] is reported as 3.39 µM. For the same molecule, the TGI [2] was > 100 µM, the GI50 [3] was 10.9 µM and the TGI [3] was > 100 µM. For the same molecule, the GI50 [4] was > 48.1 µM, the TGI [4] was > 86.3 µM and the GI50 [5] was > 100 µM. For the same molecule, the TGI [5] was > 100 µM, the GI50 [6] was > 100 µM and the TGI [6] was > 100 µM. The GI50 [7] was 3.92 µM, the TGI [7] was > 100 µM and the GI50 [8] was 64.4 µM. The TGI [8] was > 100 µM, the GI50 [9] was 14.9 µM and the TGI [9] was > 100 µM. The GI50 [10] was > 85.9 µM, the TGI [10] was > 100 µM and the GI50 [11] was 30.5 µM. For the same molecule, the TGI [11] was > 73.6 µM, the GI50 [12] was > 31 µM and the TGI [12] was > 83.7 µM. The GI50 [13] was 31.3 µM, the TGI [13] was > 100 µM and the GI50 [14] was > 100 µM. For the same molecule, the TGI [14] was > 100 µM, the GI50 [15] was 26.6 µM and the TGI [15] was > 87.7 µM. The GI50 [16] was > 100 µM, the TGI [16] was > 100 µM and the GI50 [17] was 8.85 µM. For the same molecule, the TGI [17] was > 29.1 µM, the GI50 [18] was > 48.1 µM and the TGI [18] was > 89.3 µM. The GI50 [19] was 4.73 µM, the TGI [19] was > 30.5 µM and the GI50 [20] was 32.4 µM. For the same molecule, the TGI [20] was > 100 µM, the GI50 [21] was > 62 µM and the TGI [21] was > 100 µM. For the same molecule, the GI50 [22] was > 20.6 µM, the TGI [22] was > 100 µM and the GI50 [23] was 8.53 µM. For the same molecule, the TGI [23] was > 43.4 µM, the GI50 [24] was 7.83 µM and the TGI [24] was > 100 µM. For the same molecule, the GI50 [25] was > 58.8 µM, the TGI [25] was > 100 µM and the GI50 [26] was > 28.7 µM. The TGI [26] was > 100 µM, the GI50 [27] was 8.72 µM and the TGI [27] was > 100 µM. The GI50 [28] was 4.88 µM, the TGI [28] was > 100 µM and the GI50 [57] was 2.86 µM. The TGI [57] was 16.6 µM, the GI50 [29] was 11.2 µM and the TGI [29] was > 57.9 µM. For the same molecule, the GI50 [30] was 22.1 µM, the TGI [30] was > 57.7 µM and the GI50 [31] was > 26.9 µM. For the same molecule, the TGI [31] was > 100 µM, the GI50 [32] was 24.2 µM and the TGI [32] was > 100 µM. For the same molecule, the GI50 [33] was 3.57 µM, the TGI [33] was > 100 µM and the GI50 [34] was 8.09 µM. The TGI [34] was > 56 µM, the GI50 [35] was 6.38 µM and the TGI [35] was > 30.6 µM. The GI50 [36] was > 67.3 µM, the TGI [36] was > 100 µM and the GI50 [37] was > 33 µM. For the same molecule, the TGI [37] was > 100 µM, the GI50 [39] was 1.97 µM and the TGI [39] was 5.67 µM. The GI50 [40] was 1.08 µM, the TGI [40] was > 34.2 µM and the GI50 [41] was 20.6 µM. The TGI [41] was > 72.7 µM, the GI50 [42] was 14.4 µM and the TGI [42] was > 59.9 µM. The GI50 [43] was > 53.8 µM, the TGI [43] was > 100 µM and the GI50 [44] was > 69.9 µM. For the same molecule, the TGI [44] was > 100 µM, the GI50 [58] was > 100 µM and the TGI [58] was > 100 µM. The GI50 [45] was 59.1 µM, the TGI [45] was > 100 µM and the GI50 [46] was 8.55 µM. For the same molecule, the TGI [46] was > 69.9 µM, the GI50 [47] was 5.18 µM and the TGI [47] was > 50.2 µM. It also gave a GI50 [48] of 14.4 µM, a TGI [48] of 87.8 µM and a GI50 [49] of 0.207 µM. The TGI [49] was 0.466 µM, the GI50 [50] was 0.755 µM and the TGI [50] was > 43.6 µM. The GI50 [51] was > 100 µM, the TGI [51] was > 100 µM and the GI50 [52] was 2.64 µM. For the same molecule, the TGI [52] was > 21.3 µM, the GI50 [53] was 32.1 µM and the TGI [53] was > 100 µM. The GI50 [54] was 10.7 µM, the TGI [54] was > 82.9 µM and the GI50 [55] was > 55.1 µM. For the same molecule, the TGI [55] was > 100 µM, the GI50 [56] was 2.3 µM and the TGI [56] was > 100 µM.
